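Each compound was tested at five concentrations against cells in 96-well plates for 48 hours. At the GI50, growth is halved. Definition used: TGI = concentration required for complete inhibition of growth.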
Key:
Assay in all cases: NCI-60 cell line screen, 48 h
786-0 renal = system: 786-0 renal
A498 renal = system: A498 renal
A549 NSCLC = system: A549 NSCLC
ACHN renal = system: ACHN renal
BT-549 breast = system: BT-549 breast
CAKI-1 renal = system: CAKI-1 renal
CCRF-CEM leukemia = system: CCRF-CEM leukemia
COLO 205 colon = system: COLO 205 colon
DU-145 prostate = system: DU-145 prostate
EKVX NSCLC = system: EKVX NSCLC
HCC-2998 colon = system: HCC-2998 colon
HCT-116 colon = system: HCT-116 colon
HCT-15 colon = system: HCT-15 colon
HL-60(TB) leukemia = system: HL-60(TB) leukemia
HOP-62 NSCLC = system: HOP-62 NSCLC
HOP-92 NSCLC = system: HOP-92 NSCLC
HS 578T breast = system: HS 578T breast
HT29 colon = system: HT29 colon
IGROV1 ovarian = system: IGROV1 ovarian
K-562 leukemia = system: K-562 leukemia
KM12 colon = system: KM12 colon
LOX IMVI melanoma = system: LOX IMVI melanoma
M14 melanoma = system: M14 melanoma
MALME-3M melanoma = system: MALME-3M melanoma
MCF7 breast = system: MCF7 breast
MDA-MB-231 breast = system: MDA-MB-231 breast
MDA-MB-435 = system: MDA-MB-435
MOLT-4 leukemia = system: MOLT-4 leukemia
NCI-H226 lung = system: NCI-H226 lung
NCI-H23 lung = system: NCI-H23 lung
NCI-H460 lung = system: NCI-H460 lung
NCI-H522 lung = system: NCI-H522 lung
NCI/ADR-RES ovarian = system: NCI/ADR-RES ovarian
OVCAR-3 ovarian = system: OVCAR-3 ovarian
OVCAR-4 ovarian = system: OVCAR-4 ovarian
OVCAR-5 ovarian = system: OVCAR-5 ovarian
OVCAR-8 ovarian = system: OVCAR-8 ovarian
PC-3 prostate = system: PC-3 prostate
RPMI-8226 leukemia = system: RPMI-8226 leukemia
RXF 393 renal = system: RXF 393 renal
SF-268 CNS = system: SF-268 CNS
SF-295 CNS = system: SF-295 CNS
SF-539 CNS = system: SF-539 CNS
SK-MEL-2 melanoma = system: SK-MEL-2 melanoma
SK-MEL-28 melanoma = system: SK-MEL-28 melanoma
SK-MEL-5 melanoma = system: SK-MEL-5 melanoma
SK-OV-3 ovarian = system: SK-OV-3 ovarian
SN12C renal = system: SN12C renal
SNB-19 CNS = system: SNB-19 CNS
SNB-75 CNS = system: SNB-75 CNS
SR leukemia = system: SR leukemia
SW-620 colon = system: SW-620 colon
T-47D breast = system: T-47D breast
TK-10 renal = system: TK-10 renal
U251 CNS = system: U251 CNS
UACC-257 melanoma = system: UACC-257 melanoma
UACC-62 melanoma = system: UACC-62 melanoma
UO-31 renal = system: UO-31 renal

With COC(=O)[C@H](Cc1ccc(O)cc1)NC(=O)[C@@H](OC)[C@@H]1Cc2cc3cc(OC4CC(OC5CC(O)C(O)C(C)O5)C(O)C(C)O4)c(C)c(O)c3c(O)c2C(=O)[C@H]1OC1CC(OC2CC(OC3CC(C)(O)C(O)C(C)O3)C(O)C(C)O2)C(O)C(C)O1 (stereo partly specified) as the molecule, how does the GI50 (786-0 renal) read?
The GI50 was 160 nM.

And the TGI (786-0 renal)?
The TGI was > 25000 nM.

And the GI50 (A498 renal)?
The GI50 was 89.2 nM.

What about the TGI (A498 renal) of the same molecule?
Its TGI is 451 nM.

What about the GI50 (A549 NSCLC) of the same molecule?
The GI50 was 150 nM.

And the TGI (A549 NSCLC)?
The TGI was > 25000 nM.

What about the GI50 (ACHN renal) of the same molecule?
Its GI50 is 405 nM.

What about the TGI (ACHN renal) of the same molecule?
Its TGI is > 25000 nM.

And the GI50 (BT-549 breast)?
The GI50 was 78.2 nM.

And the TGI (BT-549 breast)?
The TGI was 2090 nM.

What about the GI50 (CAKI-1 renal) of the same molecule?
The GI50 was 450 nM.

And the TGI (CAKI-1 renal)?
The TGI was > 25000 nM.

And the GI50 (CCRF-CEM leukemia)?
The GI50 was 111 nM.

And the TGI (CCRF-CEM leukemia)?
Its TGI is > 25000 nM.

What about the GI50 (COLO 205 colon) of the same molecule?
The GI50 was 93.2 nM.

And the TGI (COLO 205 colon)?
Its TGI is 1190 nM.

What about the GI50 (DU-145 prostate) of the same molecule?
Its GI50 is 164 nM.

And the TGI (DU-145 prostate)?
Its TGI is > 25000 nM.

What about the GI50 (EKVX NSCLC) of the same molecule?
The GI50 was 152 nM.

What about the TGI (EKVX NSCLC) of the same molecule?
Its TGI is > 25000 nM.

What about the GI50 (HCC-2998 colon) of the same molecule?
Its GI50 is 172 nM.

And the TGI (HCC-2998 colon)?
The TGI was 758 nM.

And the GI50 (HCT-116 colon)?
The GI50 was 17.5 nM.

What about the TGI (HCT-116 colon) of the same molecule?
Its TGI is > 25000 nM.

What about the GI50 (HCT-15 colon) of the same molecule?
Its GI50 is 1950 nM.

And the TGI (HCT-15 colon)?
Its TGI is > 25000 nM.

What about the GI50 (HL-60(TB) leukemia) of the same molecule?
Its GI50 is 614 nM.

And the TGI (HL-60(TB) leukemia)?
The TGI was > 25000 nM.

And the GI50 (HOP-62 NSCLC)?
Its GI50 is 106 nM.

And the TGI (HOP-62 NSCLC)?
Its TGI is > 25000 nM.

What about the GI50 (HOP-92 NSCLC) of the same molecule?
Its GI50 is 38.7 nM.

What about the TGI (HOP-92 NSCLC) of the same molecule?
The TGI was 7150 nM.

And the GI50 (HS 578T breast)?
Its GI50 is 65.4 nM.

And the TGI (HS 578T breast)?
Its TGI is 5360 nM.

And the GI50 (HT29 colon)?
The GI50 was 102 nM.

And the TGI (HT29 colon)?
The TGI was > 25000 nM.

What about the GI50 (IGROV1 ovarian) of the same molecule?
Its GI50 is 35.7 nM.

And the TGI (IGROV1 ovarian)?
The TGI was > 25000 nM.

What about the GI50 (K-562 leukemia) of the same molecule?
Its GI50 is 116 nM.

What about the TGI (K-562 leukemia) of the same molecule?
Its TGI is > 25000 nM.

What about the GI50 (KM12 colon) of the same molecule?
The GI50 was 106 nM.

And the TGI (KM12 colon)?
Its TGI is > 25000 nM.

And the GI50 (LOX IMVI melanoma)?
The GI50 was 31.6 nM.

What about the TGI (LOX IMVI melanoma) of the same molecule?
The TGI was > 25000 nM.

What about the GI50 (M14 melanoma) of the same molecule?
The GI50 was 204 nM.

What about the TGI (M14 melanoma) of the same molecule?
The TGI was 6430 nM.

And the GI50 (MALME-3M melanoma)?
The GI50 was 39.7 nM.

What about the TGI (MALME-3M melanoma) of the same molecule?
The TGI was 492 nM.

What about the GI50 (MCF7 breast) of the same molecule?
Its GI50 is 11.9 nM.

And the TGI (MCF7 breast)?
Its TGI is > 25000 nM.

And the GI50 (MDA-MB-231 breast)?
Its GI50 is 196 nM.

What about the TGI (MDA-MB-231 breast) of the same molecule?
Its TGI is > 25000 nM.

What about the GI50 (MDA-MB-435) of the same molecule?
Its GI50 is 93.1 nM.

And the TGI (MDA-MB-435)?
The TGI was 2330 nM.

What about the GI50 (MOLT-4 leukemia) of the same molecule?
The GI50 was 126 nM.

What about the TGI (MOLT-4 leukemia) of the same molecule?
The TGI was > 25000 nM.

What about the GI50 (NCI-H226 lung) of the same molecule?
The GI50 was 75.9 nM.

What about the TGI (NCI-H226 lung) of the same molecule?
Its TGI is 582 nM.

What about the GI50 (NCI-H23 lung) of the same molecule?
The GI50 was 104 nM.

And the TGI (NCI-H23 lung)?
Its TGI is > 25000 nM.

And the GI50 (NCI-H460 lung)?
Its GI50 is 60.4 nM.

What about the TGI (NCI-H460 lung) of the same molecule?
Its TGI is > 25000 nM.

And the GI50 (NCI-H522 lung)?
Its GI50 is 58.4 nM.

And the TGI (NCI-H522 lung)?
The TGI was > 25000 nM.

What about the GI50 (NCI/ADR-RES ovarian) of the same molecule?
Its GI50 is > 25000 nM.

And the TGI (NCI/ADR-RES ovarian)?
The TGI was > 25000 nM.

And the GI50 (OVCAR-3 ovarian)?
Its GI50 is 155 nM.

What about the TGI (OVCAR-3 ovarian) of the same molecule?
Its TGI is > 25000 nM.

And the GI50 (OVCAR-4 ovarian)?
Its GI50 is 178 nM.

What about the TGI (OVCAR-4 ovarian) of the same molecule?
Its TGI is > 25000 nM.

What about the GI50 (OVCAR-5 ovarian) of the same molecule?
The GI50 was 207 nM.

And the TGI (OVCAR-5 ovarian)?
Its TGI is > 25000 nM.

And the GI50 (OVCAR-8 ovarian)?
The GI50 was 166 nM.

And the TGI (OVCAR-8 ovarian)?
The TGI was > 25000 nM.

What about the GI50 (PC-3 prostate) of the same molecule?
The GI50 was 106 nM.

What about the TGI (PC-3 prostate) of the same molecule?
The TGI was > 25000 nM.

And the GI50 (RPMI-8226 leukemia)?
Its GI50 is 41.7 nM.

What about the TGI (RPMI-8226 leukemia) of the same molecule?
Its TGI is 2020 nM.

What about the GI50 (RXF 393 renal) of the same molecule?
The GI50 was 54.4 nM.

What about the TGI (RXF 393 renal) of the same molecule?
The TGI was 292 nM.

What about the GI50 (SF-268 CNS) of the same molecule?
The GI50 was 199 nM.

And the TGI (SF-268 CNS)?
The TGI was > 25000 nM.

What about the GI50 (SF-295 CNS) of the same molecule?
Its GI50 is 132 nM.

What about the TGI (SF-295 CNS) of the same molecule?
The TGI was > 25000 nM.

And the GI50 (SF-539 CNS)?
Its GI50 is 63.9 nM.

What about the TGI (SF-539 CNS) of the same molecule?
The TGI was 1970 nM.

What about the GI50 (SK-MEL-2 melanoma) of the same molecule?
Its GI50 is 100 nM.

What about the TGI (SK-MEL-2 melanoma) of the same molecule?
Its TGI is 748 nM.

What about the GI50 (SK-MEL-28 melanoma) of the same molecule?
Its GI50 is 34.8 nM.

And the TGI (SK-MEL-28 melanoma)?
Its TGI is 598 nM.

What about the GI50 (SK-MEL-5 melanoma) of the same molecule?
Its GI50 is 42.8 nM.

What about the TGI (SK-MEL-5 melanoma) of the same molecule?
Its TGI is 448 nM.

What about the GI50 (SK-OV-3 ovarian) of the same molecule?
Its GI50 is 185 nM.

And the TGI (SK-OV-3 ovarian)?
Its TGI is > 25000 nM.

And the GI50 (SN12C renal)?
Its GI50 is 59.5 nM.

And the TGI (SN12C renal)?
The TGI was > 25000 nM.

And the GI50 (SNB-19 CNS)?
Its GI50 is 71.3 nM.

And the TGI (SNB-19 CNS)?
Its TGI is > 25000 nM.

And the GI50 (SNB-75 CNS)?
Its GI50 is 77.3 nM.

And the TGI (SNB-75 CNS)?
Its TGI is 1080 nM.

What about the GI50 (SR leukemia) of the same molecule?
The GI50 was 16.3 nM.

And the TGI (SR leukemia)?
The TGI was > 25000 nM.

And the GI50 (SW-620 colon)?
The GI50 was 90.2 nM.

And the TGI (SW-620 colon)?
The TGI was > 25000 nM.

What about the GI50 (T-47D breast) of the same molecule?
Its GI50 is 87.3 nM.

What about the TGI (T-47D breast) of the same molecule?
The TGI was > 25000 nM.

And the GI50 (TK-10 renal)?
Its GI50 is 793 nM.

And the TGI (TK-10 renal)?
Its TGI is > 25000 nM.

And the GI50 (U251 CNS)?
The GI50 was 113 nM.

What about the TGI (U251 CNS) of the same molecule?
The TGI was > 25000 nM.

And the GI50 (UACC-257 melanoma)?
Its GI50 is 124 nM.

What about the TGI (UACC-257 melanoma) of the same molecule?
Its TGI is 4390 nM.

And the GI50 (UACC-62 melanoma)?
The GI50 was 22.3 nM.

What about the TGI (UACC-62 melanoma) of the same molecule?
The TGI was 106 nM.

And the GI50 (UO-31 renal)?
Its GI50 is 914 nM.

What about the TGI (UO-31 renal) of the same molecule?
The TGI was > 25000 nM.

From PubChem BioAssay (NCI)
